According to the supplement of paper PMC11061612:

What was measured:
Assay in all cases: Bliss excess, mean over the matrix (fraction); higher = more synergy
[1] = system: NUGC-3 (Gastric Carcinoma)
How it was run: (§1)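 Cell lines grown in DMEM/F12 or RPMI with 10% FBS were plated in 1536-well plates and held 24 hours at 37°C, 5% CO2 before 72 hours of exposure to two-drug dose matrices, with DMSO typically at 0.2%. CellTiter-Glo 2.0 luminescence gave viability, which was converted to inhibition. Vehicle wells were set to 0 and blank wells to 1. Combination Emax is the second-highest inhibition in the matrix, and Bliss excess is the observed combination effect minus the expected EA + EB − EA·EB, where EA and EB are the single-agent effects.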

[2] = system: RF-48 (B-Cell Non-Hodgkin's Lymphoma)
How it was run: as §1

[3] = system: Hs-766T (Pancreatic Carcinoma)
How it was run: as §1

[4] = system: Ca9-22 (Head and Neck Carcinoma)
How it was run: as §1

[5] = system: HGC-27 (Gastric Carcinoma)
How it was run: as §1

[6] = system: Caov-4 (Ovarian Carcinoma)
How it was run: as §1

[7] = system: NCI-H1915 (Non-Small Cell Lung Carcinoma)
How it was run: as §1

[8] = system: HOP-62 (Lung Adenocarcinoma)
How it was run: as §1

[9] = system: NCI-H358 (Lung Adenocarcinoma)
How it was run: as §1

[10] = system: AMO-1 (Plasma Cell Myeloma)
How it was run: as §1

[11] = system: NEC8 (Other Solid Carcinomas)
How it was run: as §1

D-263MG (Glioblastoma) = system: D-263MG (Glioblastoma)
How it was run: as §1

NB69 (Neuroblastoma) = system: NB69 (Neuroblastoma)
How it was run: as §1

YH-13 (Glioblastoma) = system: YH-13 (Glioblastoma)
How it was run: as §1

[12] = system: EFM-19 (Breast Carcinoma)
How it was run: as §1

[13] = system: NCI-H727 (Other Solid Carcinomas)
How it was run: as §1

[14] = system: OSC-20 (Oral Cavity Carcinoma)
How it was run: as §1

[15] = system: SU8686 (Pancreatic Carcinoma)
How it was run: as §1

[16] = system: SW13 (Other Solid Carcinomas)
How it was run: as §1

TGW (Neuroblastoma) = system: TGW (Neuroblastoma)
How it was run: as §1

Compound	Bliss excess [1]	Bliss excess [2]	Bliss excess [3]	Bliss excess [4]	Bliss excess [5]	Bliss excess [6]	Bliss excess [7]	Bliss excess [8]	Bliss excess [9]	Bliss excess [10]	Bliss excess [11]	Bliss excess (D-263MG (Glioblastoma))	Bliss excess (NB69 (Neuroblastoma))	Bliss excess (YH-13 (Glioblastoma))	Bliss excess [12]	Bliss excess [13]	Bliss excess [14]	Bliss excess [15]	Bliss excess [16]	Bliss excess (TGW (Neuroblastoma))
CC(=O)c1c(C)c2cnc(Nc3ccc(N4CCNCC4)cn3)nc2n(C2CCCC2)c1=O [Palbociclib] + CC1(C)CCC(CN2CCN(c3ccc(C(=O)NS(=O)(=O)c4ccc(NCC5CCOCC5)c([N+](=O)[O-])c4)c(Oc4cnc5[nH]ccc5c4)c3)CC2)=C(c2ccc(Cl)cc2)C1 [Venetoclax] (first compound max 10 µM, 7x7, partner max 1 µM)	-0.0178	-0.112	-0.0544	-0.0044	0.046	-0.057	0.0174	-0.0132	-0.0862	-0.0284	-0.0265	-0.0043	0.0084	0.0451	-0.0475	0.0029	-0.0545	-0.0391	-0.0444	-0.014
COc1nnc2ccc(N3CCC(c4ccc(OCCN5CCN(C)C(=O)[C@H]5C)cc4)CC3)nn12 [AZD5153] + Cn1cnc2c(F)c(Nc3ccc(Br)cc3Cl)c(C(=O)NOCCO)cc21 [Selumetinib] (first compound max 1 µM, 7x7, partner max 10 µM)	-0.0071	-0.0939	-0.0627	0.0592	-0.083	-0.053	-0.0186	-0.0724	-0.0409	-0.0076	0.0165	0.0205	0.0191	-0.0356	-0.0565	-0.0146	-0.0816	-0.0166	0.0304	-0.0392
Cn1cnc2c(F)c(Nc3ccc(Br)cc3Cl)c(C(=O)NOCCO)cc21 [Selumetinib] + C[C@@H]1COCCN1C2=NC(=NC(=C2)C3(CC3)[S@](=N)(=O)C)C4=C5C=CNC5=NC=C4 [AZD6738] (first compound max 10 µM, 7x7, partner max 10 µM)	0.0428	-0.0651	-0.0794	-0.0197	-0.0513	-0.0221	-0.0264	-0.0175	-0.0816	-0.0261	-0.0014	-0.03	-0.0029	-0.0485	-0.0188	0.0201	-0.0613	-0.0168	0.0113	-0.0288
C=CCn1c(=O)c2cnc(Nc3ccc(N4CCN(C)CC4)cc3)nc2n1-c1cccc(C(C)(C)O)n1 [AZD1775] + C[C@@H]1COCCN1C2=NC(=NC(=C2)C3(CC3)[S@](=N)(=O)C)C4=C5C=CNC5=NC=C4 [AZD6738] (first compound max 1 µM, partner max 10 µM)	0.0683	-0.0098	-0.0217	-0.0002	0.118	-0.0268	-0.0225	0.0372	-0.0219	-0.0139	0.163	-0.0766	0.0351	-0.0142	-0.0503	0.0078	0.0026	-0.0188	0.0169	0.0606
COc1nnc2ccc(N3CCC(c4ccc(OCCN5CCN(C)C(=O)[C@H]5C)cc4)CC3)nn12 [AZD5153] + C[C@@H]1COCCN1C2=NC(=NC(=C2)C3(CC3)[S@](=N)(=O)C)C4=C5C=CNC5=NC=C4 [AZD6738] (first compound max 1 µM, 7x7, partner max 10 µM)	0.0398	-0.0851	-0.0137	-0.0481	-0.0376	0.097	-0.0054	-0.0276	-0.0855	-0.0361	0.0124	0.0106	0.008	-0.0157	0.0541	0.0364	-0.0201	-0.0329	-0.022	-0.0601
Cc1c2c(nn1C)CSCc1cc(n(C)n1)CSc1cc(c3ccccc3c1)OCCCc1c(C(=O)O)n(C)c3c-2c(Cl)ccc13 [AZD5991] + C=CCn1c(=O)c2cnc(Nc3ccc(N4CCN(C)CC4)cc3)nc2n1-c1cccc(C(C)(C)O)n1 [AZD1775] (first compound max 1 µM, partner max 1 µM)	-0.0088	0.0064	0.0172	-0.032	-0.0061	-0.0345	-0.0552	-0.0288	-0.0047	-0.0189	-0.0089	-0.0168	-0.0267	-0.0275	0.054	-0.0171	-0.0115	0.0175	0.0002	-0.0538
CC1(C)CCC(CN2CCN(c3ccc(C(=O)NS(=O)(=O)c4ccc(NCC5CCOCC5)c([N+](=O)[O-])c4)c(Oc4cnc5[nH]ccc5c4)c3)CC2)=C(c2ccc(Cl)cc2)C1 [Venetoclax] + Cn1cnc2c(F)c(Nc3ccc(Br)cc3Cl)c(C(=O)NOCCO)cc21 [Selumetinib] (first compound max 1 µM, 7x7, partner max 3 µM)	0.0051	-0.0034	-0.0346	0.0054	-0.0178	0.0087	-0.0541	-0.0155	-0.024	0.0092	-0.0151	-0.0292	0.0179	-0.0542	-0.0607	-0.0534	-0.038	-0.0792	0.0137	0.0099
COc1cccc(OCCCN)c1-c1cc(Nc2cnc(C#N)cn2)n[nH]1 [Prexasertib] + CN(C)CCCOc1ccc(-c2ccc3ncc4c(c3c2)n(C2CCOCC2)c(=O)n4C)cn1 [AZD0156] (first compound max 1 µM, 7x7, partner max 1 µM)	0.0083	0.0213	-0.0062	-0.0123	-0.0193	0.0056	-0.0086	-0.0042	-0.034	-0.0341	-0.009	0.0273	0.0064	-0.0203	-0.0701	-0.0646	-0.0111	-0.0068	0.0256	-0.0253
Cc1c2c(nn1C)CSCc1cc(n(C)n1)CSc1cc(c3ccccc3c1)OCCCc1c(C(=O)O)n(C)c3c-2c(Cl)ccc13 [AZD5991] + C[C@@H]1COCCN1C2=NC(=NC(=C2)C3(CC3)[S@](=N)(=O)C)C4=C5C=CNC5=NC=C4 [AZD6738] (first compound max 1 µM, 7x7, partner max 10 µM)	0.0119	-0.0062	0.0201	0.0573	0.0562	-0.0205	0.0212	0.0213	-0.0334	0.0055	0.1	-0.0023	0.0301	0.0218	0.0543	0.025	0.0592	-0.008	0.0363	0.0167
CC1(C)CCC(CN2CCN(c3ccc(C(=O)NS(=O)(=O)c4ccc(NCC5CCOCC5)c([N+](=O)[O-])c4)c(Oc4cnc5[nH]ccc5c4)c3)CC2)=C(c2ccc(Cl)cc2)C1 [Venetoclax] + C1CN(CCC1(C(=O)N[C@@H](CCO)C2=CC=C(C=C2)Cl)N)C3=NC=NC4=C3C=CN4 [Capivasertib] (first compound max 1 µM, 7x7, partner max 3 µM)	-0.0102	0.0226	-0.0635	-0.0171	-0.0002	-0.0458	-0.0362	-0.0565	-0.0591	-0.0267	-0.0125	-0.0151	0.0242	-0.039	-0.0925	-0.0539	-0.0354	-0.0379	-0.0238	-0.0211
Cc1c2c(nn1C)CSCc1cc(n(C)n1)CSc1cc(c3ccccc3c1)OCCCc1c(C(=O)O)n(C)c3c-2c(Cl)ccc13 [AZD5991] + C[C@@H](Nc1cc(F)cc(F)c1)c1cc(C(=O)N(C)C)cc2c(=O)cc(N3CCOCC3)oc12 [AZD8186] (first compound max 1 µM, 7x7, partner max 3 µM)	0.0052	-0.0401	-0.111	-0.012	0.0246	-0.0121	-0.0265	-0.0421	-0.0519	0.0522	0.008	0.0849	-0.0207	0.0058	-0.0123	0.0239	-0.0335	-0.0002	0.0293	-0.0155
CN(C)CCCOc1ccc(-c2ccc3ncc4c(c3c2)n(C2CCOCC2)c(=O)n4C)cn1 [AZD0156] + CCN(CCO)CCCOc1ccc2c(Nc3cc(CC(=O)Nc4cccc(F)c4)[nH]n3)ncnc2c1 [AZD2811] (first compound max 1 µM, 7x7, partner max 1 µM)	0.0312	0.0084	-0.0411	-0.0056	-0.0352	0.005	0.0174	-0.046	-0.0214	0.0053	0.0233	-0.0339	-0.0815	-0.0119	-0.0331	-0.0825	0.0224	-0.0375	0.0259	-0.0141
C[C@@H]1COCCN1c1cc(C2([S@](C)(=N)=O)CC2)nc(-c2ccnc3[nH]ccc23)n1 [AZD6738] + O=C(c1cc(Cc2n[nH]c(=O)c3ccccc23)ccc1F)N1CCN(C(=O)C2CC2)CC1 [Olaparib] (first compound max 10 µM, 7x7, partner max 10 µM)	-0.0296	-0.0422	-0.0039	-0.042	0.0231	-0.125	-0.0182	0.0092	-0.0276	-0.0316	0.0254	0.0604	0.045	0.0254	0.0141	-0.0317	0.0171	-0.0231	0.0093	-0.0469
Cn1cnc2c(F)c(Nc3ccc(Br)cc3Cl)c(C(=O)NOCCO)cc21 [Selumetinib] + CCN(CCO)CCCOc1ccc2c(Nc3cc(CC(=O)Nc4cccc(F)c4)[nH]n3)ncnc2c1 [AZD2811] (first compound max 10 µM, 7x7, partner max 1 µM)	0.0179	-0.0305	-0.0659	0.0241	-0.0515	-0.0643	-0.038	-0.0772	-0.0743	0.0538	-0.0166	-0.0385	-0.0155	-0.14	0.0054	-0.0389	-0.0115	-0.0179	-0.0919	-0.026
